GI50 and TGI data for eight compounds are collected here from PubChem BioAssay (NCI).

Several values for one entry are separate records, joined by “and”; a condition that tells them apart may be missing. Equal entries are not always repeated.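 Values below derive from 48-hour exposures of cells grown in 96-well plates, with endpoints linearly interpolated between the two concentrations bracketing the appropriate inhibition level. GI50 is the concentration that inhibits growth by half. TGI is the concentration that stops growth completely.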

Among the test systems are SF-539 CNS; OVCAR-5 ovarian; IGROV1 ovarian; SF-268 CNS; NCI-H460 lung; SNB-19 CNS; UACC-257 melanoma; TK-10 renal; HOP-62 NSCLC; SK-MEL-28 melanoma.
Holding throughout (test): NCI-60 cell line screen, 48 h

With `Clc1ccc2c(NCCNc3nc(N4CCOCC4)nc4ccccc34)ccnc2c1`, the GI50 in the assay on SF-539 CNS is 1.73 µM; in the assay with OVCAR-5 ovarian it was 3.34 µM; with IGROV1 ovarian it was 2.88 µM; in the assay on SF-268 CNS it was 3.53 µM; in the assay on NCI-H460 lung it was 2.03 µM; in the assay on SNB-19 CNS, 2.59 µM. Moreover, the GI50 with UACC-257 melanoma was 2.07 µM; with TK-10 renal, 1.83 µM; in the assay with HOP-62 NSCLC, 2.25 µM; with SK-MEL-28 melanoma, 2.1 µM. The TGI with SF-539 CNS was 3.34 µM; in the assay with OVCAR-5 ovarian, 12.6 µM; in the assay with IGROV1 ovarian, 10.2 µM; in the assay with SF-268 CNS, 13 µM; in the assay with NCI-H460 lung, 4.16 µM; in the assay on SNB-19 CNS, 8.78 µM. In addition, the TGI with UACC-257 melanoma is 4.33 µM; in the assay with TK-10 renal it was 3.39 µM; with HOP-62 NSCLC, 5.98 µM; in the assay with SK-MEL-28 melanoma, 4.12 µM.
Take `CN1CCCCC1CCN1c2ccccc2Sc2ccc(Br)cc21` (stereo unspecified): the GI50 was 2.02 µM in the assay with SF-539 CNS; 2.45 µM in the assay with OVCAR-5 ovarian; 2.37 µM with IGROV1 ovarian; 2.44 µM with SF-268 CNS; 2.29 µM with NCI-H460 lung; 2.92 µM with SNB-19 CNS. Besides, the GI50 in the assay with UACC-257 melanoma was 1.91 µM; in the assay on TK-10 renal, 1.99 µM; in the assay with HOP-62 NSCLC it was 5.46 µM; in the assay with SK-MEL-28 melanoma it was 2.04 µM. Besides, the TGI was found to be 4.01 µM in the assay on SF-539 CNS; 7.65 µM in the assay with OVCAR-5 ovarian; 6.37 µM in the assay with IGROV1 ovarian; 6.61 µM with SF-268 CNS; 5.01 µM in the assay with NCI-H460 lung; 12.4 µM in the assay on SNB-19 CNS. Further, the TGI with UACC-257 melanoma stood at 3.55 µM; in the assay on TK-10 renal it was 5.14 µM; in the assay with HOP-62 NSCLC it was 22.8 µM; with SK-MEL-28 melanoma, 4.37 µM.
With `CCCCNc1ncnc2c1cnn2-c1ccccc1`, the GI50 is 4.05 µM in the assay with SF-539 CNS; 12.9 µM in the assay on OVCAR-5 ovarian; 2.22 µM in the assay on IGROV1 ovarian; 9.78 µM in the assay with SF-268 CNS; 1.61 µM in the assay with NCI-H460 lung; 8.69 µM in the assay with SNB-19 CNS. Also, the GI50 in the assay on UACC-257 melanoma was 11 µM; in the assay on TK-10 renal, 5.35 µM; with HOP-62 NSCLC, 3.42 µM; in the assay on SK-MEL-28 melanoma it was 10.1 µM. Further, the TGI with SF-539 CNS was greater than 100 µM; with OVCAR-5 ovarian, greater than 100 µM; in the assay on IGROV1 ovarian, greater than 100 µM; with SF-268 CNS, greater than 84.5 µM; with NCI-H460 lung it was greater than 43.1 µM; in the assay on SNB-19 CNS, greater than 100 µM. In addition, the TGI with UACC-257 melanoma is greater than 83.8 µM; in the assay on TK-10 renal, greater than 57.9 µM; in the assay on HOP-62 NSCLC, greater than 100 µM; with SK-MEL-28 melanoma it was greater than 100 µM.
On to `Cc1cc(C)c2nc3c(c(C(O)C4CCCCN4)c2c1)CC/C3=C\c1ccc(Cl)cc1` (stereo unspecified), for which the TGI in the assay with SF-539 CNS, in the assay on OVCAR-5 ovarian, in the assay with IGROV1 ovarian, in the assay with SF-268 CNS, in the assay on NCI-H460 lung and in the assay with SNB-19 CNS was greater than 100 µM in each case. For the same compound, the TGI in the assay with UACC-257 melanoma, in the assay with TK-10 renal, with HOP-62 NSCLC and in the assay on SK-MEL-28 melanoma was greater than 100 µM throughout.
Consider `CC1(C)CC(O)CC(C)(C)N1O`, for which the TGI with SF-539 CNS, in the assay with OVCAR-5 ovarian, with IGROV1 ovarian, with SF-268 CNS, with NCI-H460 lung and with SNB-19 CNS was greater than 100 µM throughout. The TGI in the assay with UACC-257 melanoma, in the assay with TK-10 renal, in the assay with HOP-62 NSCLC and with SK-MEL-28 melanoma was greater than 100 µM each time.
For the compound `O=c1[nH]c2cc(Cl)ccc2nc1/C(=N\Nc1ccccc1)C(O)c1ccc2c(c1)OCO2` (stereo unspecified), the TGI in the assay with SF-539 CNS, with OVCAR-5 ovarian, in the assay with IGROV1 ovarian, in the assay on SF-268 CNS, with NCI-H460 lung and in the assay with SNB-19 CNS was greater than 100 µM each time. In addition, the TGI with UACC-257 melanoma, in the assay on TK-10 renal, in the assay on HOP-62 NSCLC and in the assay on SK-MEL-28 melanoma was greater than 100 µM throughout.
As to `C/C=C/C=C/c1cc2cc3c(c(O)c2c(=O)[nH]1)C1(CC3)C(O)=c2c(=O)c3c(=O)cc(OC)c(=O)c=3c(=O)c2=C1O` (stereo unspecified), the GI50 in the assay with SF-539 CNS was 0.363 µM and 2.33 µM; in the assay on NCI-H460 lung, 0.192 µM and 0.985 µM; in the assay with HOP-62 NSCLC it was 0.327 µM and 1.15 µM. In addition, the TGI in the assay with SF-539 CNS was 2.48 µM and 10.6 µM; in the assay on IGROV1 ovarian, 10.6 µM and 15.3 µM; in the assay with SF-268 CNS it was 17.6 µM and 40.3 µM; in the assay with NCI-H460 lung it was 15.6 µM and 12 µM; in the assay with SNB-19 CNS it was 14.5 µM and 13.9 µM; in the assay on UACC-257 melanoma, 1.87 µM and 6.45 µM. For the same compound, the TGI with TK-10 renal is 4.13 µM and 16.4 µM; in the assay with HOP-62 NSCLC, 4.49 µM and 8.28 µM; with SK-MEL-28 melanoma, 4.93 µM and 20.1 µM.
As to `COC(=O)c1c(C(=O)OC)c(-c2ccccc2)n(-c2ccccc2)c(=O)c1-c1ccccc1`, the TGI in the assay on SF-539 CNS, in the assay on OVCAR-5 ovarian, in the assay on IGROV1 ovarian, with SF-268 CNS, in the assay on NCI-H460 lung and in the assay on SNB-19 CNS was greater than 100 µM each time. The TGI in the assay on UACC-257 melanoma, in the assay with TK-10 renal and with HOP-62 NSCLC was greater than 100 µM each time.
